According to patent publication US8653298B2, “Biphenyl acetate, preparation and uses thereof” (Shijiazhuang Yiling Pharmaceutical Co., Ltd., priority 2006, dated 2014):
Entries after “also recorded” stand apart in the source; their conditions may differ. Structures can show the parent of a compound that is named as a salt.

Assays:
NIH mice [1] = assay: test of stomach channel, oral administration; conditions: 212 mg/kg oral, fasted 24 hours, stomach dissected after 48 hours
Procedure: NIH mice are divided into two groups randomly. […] Dissect stomach after 48 hours. Use 10% methylene oxide. Cut the stomach along the curve of stomach, and calculate the percentage of an ulcer canker.

female Kunming mouse = assay: analgesia, mice heating plate method; assay type: in vivo; conditions: for pain record on hot plate (55±0.5° C.): 240 mg/kg
Procedure: Pick the female Kunming mouse, each having the weight between 20 to 22 grams. At first, test their sensitive towards pain. Put the mouse on the hot plate with the temperature of 55±0.5° C., and calculate how much pain does the mouse has by determining how many times they lick their back leg. Eliminate the mice seem to like to jump and the mice has no respond for 30 seconds. Pick a total of 60 mice having sensitive to pain and divide them into 5 groups randomly. […] The dosage of biphenyl acetic ammonia butantriol salt is divided into low, medium, and high dosage, correspondingly to 4, 12, 36 mg/kg, and normal dosage ⅓, 1, 3 respectively. And there is a positive contrast group. […] On the other hand, the saline is injected into the vein in the contrast group. Use epilation to remove the hair of the back leg of the mouse. Record the painful of every mouse before giving drug, and record the painful after giving drug 1 hour. After the mouse licks its foot, remove the hot plate immediately. Do the same record again at the second and third hour after giving drug. Do the t inspect, and judge its effects on easing pain.

NIH mice [2] = assay: in vivo
Excerpt: (§1) A total amount of 40 NIH mice, 19-21 gram, (half of the mice are male and half of the mice are female), it is divided into two groups: medicine group and the contrast group. […] The contrast is given by the […] liquid. Investigation and record the poison effect on the mice and the amount of mice death.

in vivo = conditions: both, NIH, mouse, in vivo
Excerpt: as §1

Kunming mouse = assay: swelling of the mouse ear caused by dimethyl benzene; conditions: 3-48 mg/kg
Excerpt: Total numbers of 110 Kunming mice are used, male, 15-17 g, medical inspection for 3 days.
After testing, the mice are divided into eleven groups randomly and each group contains 10 mice. The numbers and dosage of the biphenyl acetic ammonia butantriol slat are 1, 2, 3, 4, 5 and 3, 6, 12, 24, 48, respectively. The numbers and dosage of flurbiprofen axetil are 1, 2, 3, 4, 5, and 3, 6, 12, 24, 48 respectively. Use the dimethybenzene to make the mouse ear swelling, and use the mouse left ear as the contrast group. After 30 minutes, the mixing liquid is injected into the vein according to its weight ratio 0.1 ml liquid/10 gram weight. Use a punch, having the diameter of 8 mm, to punch the same hole in two different ears. Weight it by very high quality scale. Finally, the swelling ratio is: the weight of right ear plus the weight of left ear.

[3] = stable test of the injection (influence, acceleration, long term); assay type: physicochemical
Excerpt: The purpose is to investigate the regular change of this product which has the influence of temperature, humidity, and light intensity, and offer producing, packaging, and transporting condition for this medicine. At the same time, the effective date is established by passing this testing. According to the Chinese pharmacopia appendix XI X C, second edition, 2005(the rule of medicine stability testing direction) and “The important stability item-list of bulk drug and pharmaceutical preparation” which is in “The researching directive rule of chemical medicine and therapeutic biological products” determines the important item-list, which includes gender character, PH value, relative materials, asepsis, thermal source, assay, and so on. The testing result is below: […] In other words, the quality of the product is very stable. […] In other words, the quality of the product is very stable. […] In other words, the quality of the product is very stable.

NIH mice [4] = assay: twist reaction caused by glacial acetic acid; conditions: 3-48 mg/kg
Procedure: After testing, the 110 NIH mice are divided into eleven groups randomly, which means each group has 10 mice, and each of the mice has a weight between 15 and 17 grams. The numbers and dosage of the biphenyl acetic ammonia butantriol slat are 1, 2, 3, 4, 5 and 3, 6, 12, 24, 48 mg/kg respectively. The numbers and dosage of flurbiprofen axetil are 1, 2, 3, 4, 5, and 3, 6, 12, 24, 48 respectively also. The medicine and weight ratio is 0.1 ml medicine/10 g weight. Meanwhile, we give the same quantity of saline solution to the contrast group. After 30 minutes, the mixture solution is injected into the vein according to its weight ratio 0.1 ml liquid/10 gram weight for HAc painful.

solubility testing = assay type: physicochemical; conditions: for Conclusion (solubility): 25±2° C.
Procedure: According to Chinese medicine book in 2005 edition, the preparation of biphenyl acetic ammonia butantriol salt is made by different solvent. […] At first, mill the biphenyl acetic ammonia butantriol salt into flour and weight it, and add solvent into the biphenyl acetic ammonia butantriol salt. Second, at 25±2° C., wave the mixer solution every 5 minutes for 30 seconds, and inspect the dissolve situation. Repeat three times and the result is illustrated in Table 1.

[5] = tested on: 2% red blood cell's suspending liquid; assay: hemolytic testing outside the body (visual); assay type: cell-based, rabbit; conditions: low concentration 0.63 mg/ml
Procedure: Take 0.5 ml the biphenyl acetic ammonia butantriol salt solution and dilute it with 0.9 % NaCl solution (0.9 g/100 ml) to 6.25 ml.
Take 2 ml the biphenyl acetic ammonia butantriol salt solution and dilute it with 0.9 % NACL (0.9 g/100 ml) solution to 6.0 ml.
Take few milliliters of rabbit blood into a triangular flask and shake it for 10 minutes. Remove the fiber egg white, and get non-fiber blood. Separate the blood solution into few centrifuge tubes. Add ten times of 0.9% NaCl solution, well mixing, and centrifuge (1500 turns/minutes, 15 minutes) to remove the supernatant. Use 0.9% NaCl solution to wash the precipitation red blood two or three times until the supernatant is not red anymore. Use the red blood to mix the 0.9% NaCl solution to make 2% suspending liquid for test use.
Take the same size of opening of 7 clean test tubes and number them. Add the 0.9% NaCl solution, the injection water, medicine, and the 2% suspending liquid followed by Table 9. After well mixing, put them in the temperature chamber at 37° C. Inspect them every 15 minutes. After 1 hour, inspect them every one hour for 3 hours.
If testing solution presents clearly red, no cellular residual under the tube, and few cellular residual, it can determines that haemolysis happens. If red cells all sink, and supernatant fluid presents no color, it can present that haemolysis doesn't happen. […]

[6] = both, NIH, mouse, in vivo, 14 days
[7] = solvent Acetone, 8.9 g in 150 ml
[8] = solvent Acetonitrile, 9.1 g in 150 ml
[9] = solvent Alcohol, 14.3 g in 10 ml
[10] = solvent Formamide, 0.2137 g in 6 ml
[11] = solvent Methanol, 0.1135 g in 3 ml

For `CC(=O)O.c1ccc(-c2ccccc2)cc1` [Biphenyl acetate], the “Number of ulcer animals/Sum of total animals” value (NIH mice [1]) was 13/15.

With `CC(=O)Oc1ccccc1C(=O)O` [Lysine Acetyl-salicylate] the “pain record on hot plate (55±0.5° C.)” value (female Kunming mouse; 1 hour) was 31.08 ± 4.26, the “pain record on hot plate (55±0.5° C.)” value (female Kunming mouse; 2 hours) was 30.35 ± 3.29 and the “pain record on hot plate (55±0.5° C.)” value (female Kunming mouse; 3 hours) was 28.16 ± 2.97.

With `O=C(O)Cc1ccc(-c2ccccc2)cc1` [biphenyl acetic ammonia butantriol salt] the “time which mouse is standing on the hot plate compared to the contrast group” value (female Kunming mouse; first, second and third hour after giving drugs) was “significantly extends”, the mouse death (NIH mice [2]; 940 mg/kg total for one day, 14 days after injection) was “no mouse went death” and the maximum enduring quantity (NIH mice [2]; [6]) was “over 940 mg/kg”. For the same molecule, the tolerance value (NIH mice [2]; [6]) was 940 mg/kg, the “poison effect on the mice after injection” value (NIH mice [2]; mouse, in vivo) was “barely to move” and the LD50 at 14 days (in vivo; LD50) was greater than 940 mg/kg. For the same molecule, the LD50 at 14 days (in vivo; LD50 of the salt stated as biphenyl phenylacetic acid) was 589 mg/kg, the “effect towards the swelling ear caused by dimethybenzene compared with flurbiprofen axetil” value (Kunming mouse) was “no significantly difference” and the “long term test: change of the product” value ([3]; 25° C., relative humidity 25%, 3 months) was “no significantly change”. The “acceleration test: change of the product” value ([3]; 40±2° C., relative humidity 75±5%, 3 months) was “no significantly change”, the “influence test: change of the product” value ([3]; 60° C., relative humidity 92.5±5%, light intensity 4500±500 lx, 10 days) was “no significantly change” and the “effect towards the mouse twisted caused by glacial acetic acid compared with flurbiprofen axetil injection” value (NIH mice [4]) was “no significantly difference”. For the same molecule, the The dissolving condition (solubility testing; [7]) was “Completely”, the “Conclusion (solubility)” value (solubility testing; [7]) was “Undissolvable” and the The dissolving condition (solubility testing; [8]) was “Completely”. The “Conclusion (solubility)” value (solubility testing; [8]) was “Undissolvable”, the The dissolving condition (solubility testing; [9]) was “Completely” and the “Conclusion (solubility)” value (solubility testing; [9]) was “just a few dissolve; also recorded: Slightly”. The The dissolving condition (solubility testing; [10]) was “Completely”, the “Conclusion (solubility)” value (solubility testing; [10]) was “Dissolved” and the The dissolving condition (solubility testing; [11]) was “Completely”. For the same molecule, the “Conclusion (solubility)” value (solubility testing; [11]) was “Dissolved”, the The dissolving condition (solubility testing; solvent Water, 14.1 g in 10 ml) was “Completely” and the “Conclusion (solubility)” value (solubility testing; solvent Water, 14.1 g in 10 ml) was “just a few dissolve; also recorded: Slightly”. The “blood absorbing reaction within 3 hours” value [5] was “no blood absorbing reaction”.
